These results are taken from US12642806B2, “Cannabidiol compositions for use in treating heart conditions” (CARDIOL THERAPEUTICS INC., priority 2019, dated 2026).

For data set [1] the following is noted: taken orally; background statement; cited from earlier work.
The subject of data set [2] is human lymphocytes. Description: CD69 expression by ionomycin/PMA-activated human lymphocytes (flow cytometry). The class given is cell-based. As to conditions: CBD 5 μg/mL or greater, added 15 minutes before 4 hours stimulation with ionomycin 1 μg/ml and PMA 50 ng/ml. As for the experimental part: (§1) A further study was performed to determine the effect of CBD on the expression of CD69 (a marker of leukocyte activation) by human lymphocytes and monocytes that had been activated by ionomycin (1 μg/mL) and phorbol myristate acetate (PMA, 50 ng/mL) in vitro.
(§2) Mononuclear cells from a healthy human donor were isolated using a gradient method with Ficoll-Pacque™ Healthcare. Cells were washed with RPMI media with 10% FCS and 1% Penn/Strept and then placed in 12 well trays at 1×10^6 cells/mL and stimulated for 4 hours with Ionomycin 1 μg/ml and 50 ng/ml PMA. CBD was added 15 minutes before using DMSO as a vehicle. After the stimulation, cells were washed again and resuspended in 150 μL staining buffer (PBS+1% BSA). An optimized protocol for surface marker staining was used. CD69 was added to the cells, which were then incubated for 15 minutes in the dark at room temperature. After this, cells were washed twice with PBS+1% BSA and resuspended in 150 μL buffer. Cells were kept at 4 degrees prior to being analyzed in a FACSCanto™ II cytometer. Cell populations were determined by FSC/SSC. The number of events were at least 2000 events per gate. […] The data was analyzed with FlowJo X. Doublets were discriminated with an exclusion gate of FSC-A/FSC-W. Gating for lymphocytes and monocytes was determined by FSC-A/SSC-A. The frequency and expression of CD69-FITC was analyzed in its FITC channel.
Background: In flow cytometry, cells or beads pass a laser one at a time.

Data set [3] relates to H9c2 cells. The data set is described as follows: Angiotensin II-mediated cardiomyocyte hypertrophy in H9c2 cells, cell surface area (calcein, confocal microscopy). The data set is classed as cell-based. As to conditions: compared with Ang group. As for the experimental part:
A study was conducted to determine the effect of CBD in a model of cardiomyocyte hypertrophy, using H9c2 cells, a cardiomyocyte cell line, in vitro. In this study, H9c2 cells grown in a culture medium were divided into four groups. To one group nothing was added (“Control”). To the second, third and fourth groups, Angiotensin II was added to the culture medium (“Ang”) to give a final concentration of 1.0 μM. The Angiotensin II was added to induce hypertrophy. To the third group, CBD was also added to give a concentration of 0.1 μM (“Ang+CBD 0.1 μM”). Finally, to the fourth group, CBD was also added to give a concentration of 1 μM (“Ang+CBD 1 μM”).
FIG. 1 contains representative confocal microscopy images of the H9c2 cells in each group. The images were obtained using a model with the same parameters and cell staining, to determine the surface area per cell, was achieved using calcein fluorescent dye. […] The results are summarized in FIG. 2, wherein each group comprises at least 3 independent replicates per group.

Data set [4] deals with human monocytes. Description: CD69 expression by ionomycin/PMA-activated human monocytes (flow cytometry). The class given is cell-based. As to conditions: CBD 5 μg/mL or greater, added 15 minutes before 4 hours stimulation with ionomycin 1 μg/ml and PMA 50 ng/ml. Here is the method: as §1, §2
The subject of data set [5] is mouse model of non-ischemic heart failure (HF). The data set is described as follows: Mouse model of non-ischemic heart failure (L-NAME/NaCl + Angiotensin II). The class given is in vivo, C57BL/6 laboratory mice. Particulars: for cardiac fibrosis (Masson's Trichrome) / myocyte area (hypertrophy): 4 weeks, vs Angiotensin group; for mRNA expression of BNP in heart tissue (qPCR): compared with ANG group. Here is the method: Tests were done to evaluate the potential for CBD in treating or preventing heart failure in a mouse model of non-ischemic heart failure (HF) illustrated in FIG. 5.
Three to four week old male C57BL/6 laboratory mice were used in the experiments. The mice were divided into four groups. A first group (the Control) received nothing. The second group of mice (Angiotensin) was provided with water containing 0.1 mg/ml of N(gamma)-nitro-L-arginine methyl ester (L-NAME) and 1% sodium chloride (NaCl) ad libitum for one week. Following this, 0.7 mg/kg/week of Angiotensin II was administered subcutaneously for 4 weeks using osmotic pumps. The third group and fourth group were subjected to the same protocol as the second group, however, the third group (ANG+CBD 1 mg/kg) and fourth group (ANG+CBD 10 mg/kg) also received synthetic CBD subcutaneously in an amount of 1 mg/kg and 10 mg/kg, respectively, once every 3 days during the same four week period. The CBD compositions used in this experiment consisted of CBD dissolved in PEG400.
After four weeks of treatment, cardiac tissue was evaluated for fibrosis and myocyte hypertrophy and changes in remodeling and inflammation biomarkers.

In data set [6] the test system is H9c2 cells. The data set is described as follows: Repeated H9c2 hypertrophy study: BNP and collagen mRNA, mitochondrial ROS (MitoSOX). The data set is classed as cell-based. Here is the method:
The study was repeated using H9c2 cells grown in a culture medium divided into seven groups. To one group nothing was added (“CTRL”). To the second, fourth, fifth, sixth, and seventh groups, Angiotensin II was added to the culture medium (“ANG”) to give a final concentration of 1.0 μM. The Angiotensin II was added to induce hypertrophy. To the third group, CBD was added to give a concentration of 0.1 μM (“CBD 0.1 μM”) as an additional control group. CBD was also added to (a) the fourth group to give a concentration of 0.001 μM (“ANG+CBD 0.001 μM”), (b) the fifth group to give a concentration of 0.01 μM (“ANG+CBD 0.01 μM”), (c) the sixth group to give a concentration of 0.1 μM (“ANG+CBD 0.1 μM”), and, finally, (d) the seventh group to give a concentration of 1 μM (“ANG+CBD 1 μM”).

Data set [7] has as its target T1, CB2 receptor (Homo sapiens, UniProt P34972). As to conditions: literature (Proc Natl Acad Sci USA 2008); cited from earlier work.
Data set [8] concerns the target T1, CB2 receptor. As to conditions: literature (Proc Natl Acad Sci USA 2008); cited from earlier work. This is another data set of the same source.
The mark [9] stands for this setting: CBD 1 mg/kg body weight subcutaneously.
Setting [10] is: CBD 1 mg/kg subcutaneously once every 3 days.
The mark [11] stands for this setting: CBD 10 mg/kg subcutaneously once every 3 days.
Where [12] appears, read: ANG+CBD 1 μM compared to ANG group.
The mark [13] stands for this setting: Angiotensin II 1.0 μM + CBD 0.001, 0.01, 0.1, 1 μM.

T1 sequence (P34972 whole entry): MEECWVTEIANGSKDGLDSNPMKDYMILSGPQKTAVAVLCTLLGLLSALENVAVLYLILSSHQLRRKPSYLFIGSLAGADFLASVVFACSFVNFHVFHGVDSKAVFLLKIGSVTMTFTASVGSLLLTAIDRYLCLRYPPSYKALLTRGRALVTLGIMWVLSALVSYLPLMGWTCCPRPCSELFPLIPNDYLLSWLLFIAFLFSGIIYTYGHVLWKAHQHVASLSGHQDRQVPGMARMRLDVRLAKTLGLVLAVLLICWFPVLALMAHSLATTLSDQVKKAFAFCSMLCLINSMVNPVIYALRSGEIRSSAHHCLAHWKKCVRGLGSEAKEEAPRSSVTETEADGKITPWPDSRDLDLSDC

As to `C=C(C)[C@@H]1CCC(C)=C[C@H]1c1c(O)cc(CCCCC)cc1O` [CBD, cannabidiol], the overall bioavailability entry in data set [1] was “less than 10%”. Also, the “level of expression of CD69 by lymphocytes” value in data set [2] is on record as “reduced the level of expression of CD69”. Moreover, the “cell surface area of H9c2 cells” value in data set [3] (Angiotensin II 1.0 μM + CBD 0.1 μM) and in data set [3] (Angiotensin II 1.0 μM + CBD 1 μM) was “significantly smaller” each time. Moreover, the “level of expression of CD69 by monocytes” value in data set [4] was “reduced the level of expression of CD69”. In addition, the “mRNA expression of IL10” value in data set [5] (setting [9]) is “significantly increased”. Besides, the “mRNA expression of pro-inflammatory cytokine IL6” value in data set [5] (setting [9]) and in data set [5] (CBD 10 mg/kg body weight subcutaneously) was “significantly decreased” each time. For the same compound, the “cardiac fibrosis (Masson's Trichrome)” value in data set [5] (setting [10]) and in data set [5] (setting [11]) was “effective to reduce” throughout. The “myocyte area (hypertrophy)” value in data set [5] (setting [10]) and in data set [5] (setting [11]) was “effective to reduce” throughout. Moreover, the “mRNA expression of BNP in heart tissue (qPCR)” value in data set [5] (CBD 1 mg/kg subcutaneously) and in data set [5] (CBD 10 mg/kg subcutaneously) was “significant reduction” in each case. Besides, the “mRNA expression of pro-inflammatory cytokine IL1β” value in data set [5] (CBD subcutaneously, dose not given) is “trend to be reduced to control levels”. The figures for the “mRNA level of expression of collagen” value in data set [6] (ANG+CBD 0.1 μM compared to ANG group), in data set [6] (setting [12]) and in data set [6] (setting [13]) were “significantly reduced”, “significantly reduced” and “dose-dependent reduction”, respectively. The “mRNA level of expression of BNP” value in data set [6] (setting [12]) is recorded as “significantly reduced”; in data set [6] (setting [13]) it was “dose-dependent reduction”. Moreover, in data set [6] (Angiotensin II 1.0 μM + CBD at different doses), the “Mitochondrial reactive oxygen species (ROS, MitoSOX)” value is “reduced down to control levels”.

Consider `C=C1CC/C=C(\C)CC[C@@H]2[C@@H]1CC2(C)C` [β-caryophyllene, trans-(1R,9S)-8-Methylene-4,11,11-trimethylbicyclo[7.2.0]undec-4-ene], for which the “binding to the CB2 receptor” value in data set [7] is “selectively binds to the CB2 receptor”. The “functional activity at CB2” value in data set [8] was “functional CB2 agonist”.
